We go through 16 compounds from US6833372B2, “Non-peptide GnRH agents, Pharmaceutical compositions, and methods for their use” (Pfizer, Inc., priority 2002, dated 2004).

One experiment deals with T1, human GnRH receptors (Homo sapiens, UniProt P30968).
T1 construct: expressed in transfected cells; host or cells: HEK 293 cells, stably transfected; membranes
T1 sequence (P30968 1-328): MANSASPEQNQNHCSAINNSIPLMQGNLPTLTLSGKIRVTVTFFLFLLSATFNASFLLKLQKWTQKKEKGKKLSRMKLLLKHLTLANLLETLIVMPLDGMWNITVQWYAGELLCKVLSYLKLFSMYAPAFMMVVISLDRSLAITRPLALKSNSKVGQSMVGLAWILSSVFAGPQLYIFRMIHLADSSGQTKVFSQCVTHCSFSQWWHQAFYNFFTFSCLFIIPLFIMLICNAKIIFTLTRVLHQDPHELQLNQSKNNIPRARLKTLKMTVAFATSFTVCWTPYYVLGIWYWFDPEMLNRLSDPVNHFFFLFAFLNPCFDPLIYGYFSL
The experiment can be described thus: Radioligand binding: inhibition of 125I-GnRH-A binding to human GnRH receptor membranes. As to conditions: HEK 293 cell membranes. In outline: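 Membranes from rat pituitaries, or HEK 293 cells stably expressing mouse or human receptor, incubated 1 hour at room temperature with ~0.04-0.06 nM radioligand (HEPES pH 7.4, EDTA, MgCl2, BSA) and competitor at 0.1-10,000 nM. Bound ligand collected by GF/C filtration and counted; Ki derived from IC50 by Cheng-Prusoff.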

Another experiment has as its target T2, rat GnRH receptor (Rattus norvegicus, UniProt P30969).
T2 construct: or rat pituitaries (Pel Freez Biologicals, Rogers, Ark.) were homogenized; tissue Pel Freez Biologicals; host or cells: rat pituitaries (membrane preparation)
T2 sequence (P30969 1-327): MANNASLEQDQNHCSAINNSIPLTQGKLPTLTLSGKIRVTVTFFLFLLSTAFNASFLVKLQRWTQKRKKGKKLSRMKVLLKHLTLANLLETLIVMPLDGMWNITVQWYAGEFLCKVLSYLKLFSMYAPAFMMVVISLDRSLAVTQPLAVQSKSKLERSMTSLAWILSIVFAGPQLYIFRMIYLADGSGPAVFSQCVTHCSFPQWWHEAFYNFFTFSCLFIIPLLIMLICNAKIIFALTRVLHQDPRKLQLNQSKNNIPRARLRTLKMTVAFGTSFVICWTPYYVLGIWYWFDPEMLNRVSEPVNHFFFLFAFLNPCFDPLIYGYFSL
The experiment can be described thus: Radioligand binding: inhibition of 125I-GnRH-A binding to rat GnRH receptor (rat pituitary membranes). Conditions: read-out: Ki (nM), Inhibition Binding of 125I-GnRH-A to GnRH Receptors. How it is done:
HEK 293 cells containing mouse or human receptors, or rat pituitaries (Pel Freez Biologicals, Rogers, Ark.) were homogenized in buffer A containing: 50 mM Tris (pH 7.4), 0.32 M sucrose, 2 mM EGTA, 1 mM PMSF, 5 μg/ml aprotinen, 5 μg/ml Pepstatin A, and 1 μg/ml leupeptin. Homogenized cells were centrifuged at 4° C. at 20,000×g for 25 minutes, re-suspended in buffer A and re-centrifuged at 4° C. at 20,000×g for an additional 25 minutes. Total membrane protein was determined with a BCA kit (Pierce, Rockford, Ill.). Membranes were stored at −70° C. at a final membrane protein concentration of approximately 5 mg/ml.
The radioiodinated agonist analog of GnRH, [des-Gly^10,D-Ala^6]GnRH ethylamide (^125I-GnRH-A), was used as the radioligand. […] The reaction mixture was vortexed and incubated for 1 minute at room temperature. After one minute, the mixture was vortexed and allowed to incubate for an additional minute. 2 ml of 0.5 M acetic acid/1% BSA was added to the reaction tube and the mixture was added to a C18 Sep-Pak cartridge. The cartridge was washed with subsequent washes of 5 ml H2O and 5 ml 0.5 M acetic acid and then eluted with 5×1 ml of 60% CH3CN/40% 0.5 M acetic acid. The eluate was diluted with 3× volume of HPLC buffer A (0.1% TFA in H2O) and loaded onto a C18 column. The iodinated product was eluted over 20-25 min with a gradient of 25-100% CH3CN containing 0.1% TFA. The radioactive fractions (750 μl/fraction) were collected into clean polypropylene tubes containing 100 μl of 10% BSA. Fractions were assessed for biological activity by radioligand binding. Specific activity of the radioligand was approximately 2200 Ci/mmol.
Membranes were diluted to 0.01-0.5 mg/ml (depending upon the species of receptor) with assay buffer containing 50 mM HEPES (pH 7.4), 1 mM EDTA, 2.5 mM MgCl2, and 0.1% BSA. Membranes (diluted to utilize similar receptor numbers between assays) were incubated with approximately 0.04-0.06 nM ^125I-GnRH-A in the presence or absence of competing agents (0.1-10,000 nM) in a total volume of 200 μl in 96-well polypropylene plates for 1 hour at room temperature. Assays were stopped by rapid filtration onto 96-well GF/C filters soaked in 0.1% polyethylenimine (PEI) utilizing a Packard 96-well cell harvester. Filters were washed three times with ice-cold PBS (50 mM NaPO4, 0.9% NaCl, 2 mM MgCl2, and 0.02% NaN3, pH 7.4). 35 μl of scintillation cocktail was added to each filter well and filters were counted on a Packard Topcount. Control dose-response curves were generated to GnRH (0.1 nM-100 nM) in each competition binding experiment. Ki values were calculated from IC50 values according to Cheng et al., Biochemical Pharmacol. 22: 3099-3108, 1973. [formula]

SMILES strings stand for the structures.

Broadly, the Ki is the equilibrium dissociation constant of an inhibitor or competing ligand from its target. Take `COc1nc(NCc2ccc(N)cc2)nc(OC)c1NC(=O)c1ccc(Cc2cc3c(cc2C)C(C)(C)OC3(C)C)o1` [Example D44, N-{2-[(4-Aminobenzyl)amino]-4,6-dimethoxypyrimidin-5-yl}-5-[(1,1,3,3,6-pentamethyl-1,3-dihydro-2-benzofuran-5-yl)methyl]-2-furamide]: the Ki on human GnRH receptors is 8.6 nM; on rat GnRH receptor, 3.4 nM.

For the compound `CCOCCN(CCOCC)c1nc(OC)c(NC(=O)c2ccc(Cc3cc4c(cc3C)C(C)(C)OC4(C)C)o2)c(OC)n1` [Example D49, N-{2-[Bis(2-ethoxyethyl)amino]-4,6-dimethoxypyrimidin-5-yl}-5-[(1,1,3,3,6-pentamethyl-1,3-dihydro-2-benzofuran-5-yl)methyl]-2-furamide], the values for the Ki at human GnRH receptors and on rat GnRH receptor were 36 nM and 45 nM, respectively.

On to `COc1nc(N[C@@H](CO)CSCc2ccccc2)nc(OC)c1NC(=O)c1ccc(Cc2cc3c(cc2C)C(C)(C)OC3(C)C)o1` [Example D50, N-(2-{[(1S)-2-(Benzylthio)-1-(hydroxymethyl)ethyl]amino}-4,6-dimethoxypyrimidin-5-yl)-5-[(1,1,3,3,6-pentamethyl-1,3-dihydro-2-benzofuran-5-yl)methyl]-2-furamide], for which the Ki at human GnRH receptors came out at 24 nM; on rat GnRH receptor, 19 nM.

Take `COc1nc(N(CC(C)O)CC(C)O)nc(OC)c1NC(=O)c1ccc(Cc2cc3c(cc2C)C(C)(C)OC3(C)C)o1` (centres unmarked) [Example D53, N-{2-[Bis(2-hydroxypropyl)amino]-4,6-dimethoxypyrimidin-5-yl)-5-[(1,1,3,3,6-pentamethyl-1,3-dihydro-2-benzofuran-5-yl)methyl]-2-furamide]: the inhibitory constant (Ki) at human GnRH receptors was determined as 4.8 nM; at rat GnRH receptor, 2.6 nM.

In the case of `COc1nc(NCC2(O)CCN(C)CC2)nc(OC)c1NC(=O)c1ccc(Cc2cc3c(cc2C)C(C)(C)OC3(C)C)o1` [Example D56, N-(2-{[(4-Hydroxy-1-methylpiperidin-4-yl)methyl]amino}-4,6-dimethoxypyrimidin-5-yl)-5-[(1,1,3,3,6-pentamethyl-1,3-dihydro-2-benzofuran-5-yl)methyl]-2-furamide Acetate], the results for the inhibition constant Ki on human GnRH receptors and at rat GnRH receptor were 30 nM and 14 nM, respectively.

On to `COc1nc(NCC(c2ccc[nH]2)C(F)(F)F)nc(OC)c1NC(=O)c1ccc(Cc2cc3c(cc2C)C(C)(C)OC3(C)C)o1` (centres unmarked) [Example D57, N-(4,6-Dimethoxy-2-{[3,3,3-trifluoro-2-(1H-pyrrol-2-yl)propyl]amino}pyrimidin-5-yl)-5-[(1,1,3,3,6-pentamethyl-1,3-dihydro-2-benzofuran-5-yl)methyl]-2-furamide], for which the inhibitory constant (Ki) came out at 36 nM at human GnRH receptors and 4.4 nM at rat GnRH receptor.

As to `COc1nc(NCCN(C)CCCCCO)nc(OC)c1NC(=O)c1ccc(Cc2cc3c(cc2C)C(C)(C)OC3(C)C)o1` [Example D58, N-[2-({2-[(5-Hydroxypentyl)(methyl)amino]ethyl}amino)-4,6-dimethoxypyrimidin-5-yl]-5-[(1,1,3,3,6-pentamethyl-1,3-dihydro-2-benzofuran-5-yl)methyl]-2-furamide], the figures for the inhibition constant (Ki) at human GnRH receptors and on rat GnRH receptor were 4.8 nM and 3.1 nM, respectively.

For `COc1nc(N2CCc3nc(N(C)C)ncc3C2)nc(OC)c1NC(=O)c1ccc(Cc2cc3c(cc2C)C(C)(C)OC3(C)C)o1` [Example D59, N-{2-[2-(Dimethylamino)-7,8-dihydropyrido[4,3-d]pyrimidin-6(5H)-yl]-4,6-dimethoxypyrimidin-5-yl}-5-[(1,1,3,3,6-pentamethyl-1,3-dihydro-2-benzofuran-5-yl)methyl]-2-furamide], the Ki on human GnRH receptors is 42 nM; on rat GnRH receptor, 14 nM.

Turning to `CNCCCNc1nc(OC)c(NC(=O)c2ccc(Cc3cc4c(cc3C)C(C)(C)OC4(C)C)o2)c(OC)n1` [Example D60, N-(4,6-Dimethoxy-2-{[3-(methylamino)propyl]amino}-5-pyrimidinyl)-5-[(1,1,3,3,6-pentamethyl-1,3-dihydro-2-benzofuran-5-yl)methyl]-2-furamide], the inhibition constant (Ki) stood at 1 nM at human GnRH receptors and 0.32 nM at rat GnRH receptor.

In the case of `COc1nc(NCc2c(F)cccc2F)nc(OC)c1NC(=O)c1ccc(Cc2cc3c(cc2C)C(C)(C)OC3(C)C)o1` [Example D73, N-{2-[(2,6-difluorobenzyl)amino]-4,6-dimethoxypyrimidin-5-yl}-5-[(1,1,3,3,6-pentamethyl-1,3-dihydro-2-benzofuran-5-yl)methyl]-2-furamide], the Ki stood at 4 nM on human GnRH receptors and 2.6 nM at rat GnRH receptor.

Take `COCCNc1nc(OC)c(NC(=O)c2ccc(Cc3cc4c(cc3C)C(C)(C)OC4(C)C)o2)c(OC)n1` [Example D74]: the inhibition constant (Ki) was 3 nM at human GnRH receptors and 1.1 nM on rat GnRH receptor.

With `COc1nc(NCCCN(C)C)nc(OC)c1NC(=O)c1ccc(Cc2c(C)cc(C)c3c2OCC3(C)C)o1` [Example H4, N-(2-{[3-(Dimethylamino)propyl]amino}-4,6-dimethoxypyrimidin-5-yl)-5-[(3,3,4,6-tetramethyl-2,3-dihydro-1-benzofuran-7-yl)methyl]-2-furamide], the inhibition constant (Ki) on human GnRH receptors amounted to 13 nM; at rat GnRH receptor, 16 nM.

On to `COc1nc(NCCCN2CCN(C)CC2)nc(OC)c1NC(=O)c1ccc(Cc2c(C)cc(C)c3c2OCC3(C)C)o1` [Example H5], for which the inhibition constant (Ki) is 11 nM at human GnRH receptors and 8.2 nM at rat GnRH receptor.

For `COc1nc(NCCCN2CCOCC2)nc(OC)c1NC(=O)c1ccc(Cc2c(C)cc(C)c3c2OCC3(C)C)o1` [Example H6, N-{4,6-Dimethoxy-2-[(3-morpholin-4-ylpropyl)amino]-pyrimidin-5-yl}-5-[(3,3,4,6-tetramethyl-2,3-dihydro-1-benzofuran-7-yl)methyl]-2-furamide], the inhibition constant (Ki) at human GnRH receptors and at rat GnRH receptor was 12 nM each time.

On to `COc1nc(NCCCN2CCOCC2)nc(OC)c1NC(=O)c1ccc(Cc2c(C)cc3c(c2C)C(C)(C)CCO3)o1` [Example I1, N-{4,6-Dimethoxy-2-[(3-morpholin-4-ylpropyl)amino]pyrimidin-5-yl}-5-[(4,4,5,7-tetramethyl-3,4-dihydro-2H-chromen-6-yl)methyl]-2-furamide], for which the Ki is 27 nM on human GnRH receptors and 26 nM at rat GnRH receptor.

As for `COc1nc(NCCCN2CCN(C)CC2)nc(OC)c1NC(=O)c1ccc(Cc2c(C)cc3c(c2C)C(C)(C)CCO3)o1` [Example I2, N-(4,6-Dimethoxy-2-{[3-(4-methylpiperazin-1-yl)propyl]amino}pyrimidin-5-yl)-5-[(4,4,5,7-tetramethyl-3,4-dihydro-2H-chromen-6-yl)methyl]-2-furamide], the Ki was 24 nM at human GnRH receptors and 16 nM on rat GnRH receptor.
